Test results taken from patent US12215116B2, “Arginase inhibitors and methods of use” (Merck Sharp & Dohme LLC, priority 2018, dated 2025).

Each compound was assayed against T1, Arginase (ARG1 enzyme) (Homo sapiens, UniProt P05089) (assay: Arginase Thioornithine Generating Assay (TOGA)). Settings: 1.88 nM arginase, thioarginine substrate, fluorescence readout.
T1 construct: made in house; host or cells: Escherichia coli
T1 sequence (P05089 1-322): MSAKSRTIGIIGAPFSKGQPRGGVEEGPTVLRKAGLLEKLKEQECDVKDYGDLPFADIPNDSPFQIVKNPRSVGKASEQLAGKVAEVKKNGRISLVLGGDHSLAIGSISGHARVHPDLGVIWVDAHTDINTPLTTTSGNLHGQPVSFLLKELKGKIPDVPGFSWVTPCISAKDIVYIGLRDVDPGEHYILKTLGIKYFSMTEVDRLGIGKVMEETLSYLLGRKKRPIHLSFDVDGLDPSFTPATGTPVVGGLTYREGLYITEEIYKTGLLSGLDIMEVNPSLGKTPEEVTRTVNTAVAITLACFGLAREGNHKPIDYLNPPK
Assay type: biochemical
Procedure: Arginase Thioornithine Generating Assay (TOGA)
Compounds were serially diluted in ten 3-fold steps in DMSO starting from 10 mM DMSO stocks. Compound dilutions or DMSO alone were then dispensed from the dilution plate into a Greiner black 384-well assay plate (catalog #781086) using an Echo 555 acoustic liquid handler (Labcyte).
Arginase protein was recombinantly expressed in Escherichia coli. Purified protein was then diluted in assay buffer (50 mM Tris pH 7.5, 50 mM NaCl, 1 mM manganese chloride, 0.05% bovine serum albumin to obtain a final Arginase concentration of 1.88 nM. Arginase solution (20 μL) or buffer alone (20 μL) were dispensed to wells of the assay plate using a BioRAPTR liquid dispenser (Beckman Coulter). Assay plates containing compound and ARG1 enzyme were incubated at room temperature for 30 minutes. Afterwards, 5 μL of 2.5 mM thioarginine (Cayman Chemicals) in assay buffer were added to each well of the assay plate using a BioRAPTR liquid dispenser. Plates were incubated at room temperature for 60 minutes and reactions were quenched by addition of 15 μL of […] 7-Diethylamine-3-(4-maleimidophenyl)-4-methylcoumarin (Sigma Chemical) in 70% ethanol. Plates were briefly shaken to mix and the fluorescence was measured in an Spectramax plate reader (Molecular Devices) with a 410 nm excitation wavelength and an 490 nm emission wavelength.
Potencies were calculated by […] to the four parameter logistic IC50 equation.

IC50 [nM]	Compound
30	CC1(C)[C@H]2C[C@@H]3OB(CCC[C@@H]4CCN[C@@H]4C(=O)O)O[C@]3(C)[C@@H]1C2 [Example 13, (3R)-3-{3-[(3aR,4R,6R,7aS)-3a,5,5-trimethylhexahydro-4,6-methano-1,3,2-benzodioxaborol-2-yl]propyl}-L-proline]
124	O=C(O)[C@H]1NC[C@H](O)[C@@]1(F)CCCB(O)O [Example 92B, (2R,3R,4S)-3-(3-boronopropyl)-3-fluoro-4-hydroxypyrrolidine-2-carboxylic acid]
17.7	C[C@]1(CCCB(O)O)[C@@H](C(=O)O)NC[C@@H]1O [Example 76, (2S,3S,4R)-3-(3-boronopropyl)-4-hydroxy-3-methylpyrrolidine-2-carboxylic acid]
> 10000	CC1(C)N[C@H](C(=O)O)[C@](C)(CCCB(O)O)[C@@H]1O [Example 75]
5710	NC[C@]1(C(=O)O)NCC[C@H]1CCCB(O)O (single isomer, unassigned) [Example 57B]
3290	CCN(CC)[C@H]1CN[C@H](C(=O)O)[C@@H]1CCCB(O)O [Example 28, (2S,3S,4R)-3-(3-boronopropyl)-4-(diethylamino)pyrrolidine-2-carboxylic acid]
16	C[C@@]1(CCCB(O)O)CCN[C@@H]1C(=O)O [Example 14, (3R)-3-[3-(dihydroxyboranyl)propyl]-3-methyl-L-proline]
48.6	C[C@H]1N[C@H](C(=O)O)[C@](C)(CCCB(O)O)[C@H]1O [Example 74A, (2S,3S,4R,5R)-3-(3-boronopropyl)-4-hydroxy-3,5-dimethylpyrrolidine-2-carboxylic acid]
31.5	CN(C)CC[C@]1(C(=O)O)NCC[C@H]1CCCB(O)O [Example 54, (2S,3R)-3-(3-boronopropyl)-2-(2-(dimethylamino)ethyl)pyrrolidine-2-carboxylic acid]
1450	C[C@@]1(C(=O)O)NCC[C@H]1CCCB(O)O [Example 16C, (3R)-3-[3-(dihydroxyboranyl)propyl]-2-methyl-D-proline]
22800	O=C(O)[C@H]1NCCC[C@@H]1CCCB(O)O (single isomer, unassigned) [Example 1D]
> 10000	CN(C)C[C@H]1CN[C@H](C(=O)O)[C@]1(C)CCCB(O)O [Example 78, (2S,3R,4R)-3-(3-boronopropyl)-4-((dimethylamino)methyl)-3-methylpyrrolidine-2-carboxylic acid]
70	C[C@]1(C(=O)O)NCC[C@H]1CCCB(O)O [Example 16A, (3R)-3-[3-(dihydroxyboranyl)propyl]-2-methyl-L-proline]
13.6	C[C@H](N)C(=O)N[C@H]1CN[C@H](C(=O)O)[C@@H]1CCCB(O)O [Example 41, (2S,3R,4R)-4-((S)-2-aminopropanamido)-3-(3-boronopropyl)pyrrolidine-2-carboxylic acid]
19.3	O=C(O)[C@H]1NCC[C@@]1(CO)CCCB(O)O [Example 83, (2S,3S)-3-(3-boronopropyl)-3-(hydroxymethyl)pyrrolidine-2-carboxylic acid]
12900	O=C(O)C1C(CCCB(O)O)CCN1CCN1CCCCC1 (centres unmarked) [Example 10, 3-(3-boronopropyl)-1-(2-(piperidin-1-yl)ethyl)pyrrolidine-2-carboxylic acid]
128	O=C(O)[C@H]1NC[C@H](NCC(F)F)[C@H]1CCCB(O)O [Example 27, (2S,3R,4R)-3-(3-boronopropyl)-4-((2,2-difluoroethyl)amino)pyrrolidine-2-carboxylic acid]
7.18	NC[C@@]1(CCCB(O)O)CCN[C@@H]1C(=O)O [Example 85, (2S,3R)-3-(aminomethyl)-3-(3-boronopropyl)pyrrolidine-2-carboxylic acid]
> 10000	NCC1(C(=O)O)CCC(CCB(O)O)C1 (mixture of isomers) [Example 95, 1-(aminomethyl)-3-(2-boronoethyl)cyclopentane-1-carboxylic acid]

IC50 [nM]	Compound
> 10000	O=C(O)[C@H]1NC[C@H](O)[C@@H]1CCCB(O)O [Example 82, (2S,3R,4R)-3-(3-boronopropyl)-4-hydroxypyrrolidine-2-carboxylic acid]
> 10000	O=C(O)[C@H]1NC[C@@H](O)[C@H]1CCCB(O)O [Example 20B, (3S,4S) 3-[3-(dihydroxyboranyl)propyl]-4-hydroxy-L-proline]
119	CN(C)C[C@@]1(CCCB(O)O)CCN[C@@H]1C(=O)O [Example 86, (2S,3R)-3-(3-boronopropyl)-3-((dimethylamino)methyl)pyrrolidine-2-carboxylic acid]
28.9	O=C(O)[C@H]1NCC[C@]1(CCCB(O)O)C(F)F [Example 84, (2S,3S)-3-(3-boronopropyl)-3-(difluoromethyl)pyrrolidine-2-carboxylic acid]
> 10000	O=C(O)[C@H]1NC[C@@H](O)[C@]1(F)CCCB(O)O [Example 92C, (2R,3S,4R)-3-(3-boronopropyl)-3-fluoro-4-hydroxypyrrolidine-2-carboxylic acid]
311	O=C(O)[C@@]1(CO)NCC[C@H]1CCCB(O)O [Example 59A, (2R,3R)-3-(3-boronopropyl)-2-(hydroxymethyl)pyrrolidine-2-carboxylic acid]
> 10000	CN(C)C[C@]1(C(=O)O)NCC[C@H]1CCCB(O)O [Example 58, (2R,3R)-3-(3-boronopropyl)-2-((dimethylamino)methyl)pyrrolidine-2-carboxylic acid]
17	C[C@]1(CCCB(O)O)[C@@H](C(=O)O)NC[C@@H]1N [Example 71, (2S,3R,4R)-4-amino-3-(3-boronopropyl)-3-methylpyrrolidine-2-carboxylic acid]
119	C[C@@]1(CCCB(O)O)CCN[C@]1(C)C(=O)O [Example 72, (2S,3R)-3-(3-boronopropyl)-2,3-dimethylpyrrolidine-2-carboxylic acid]
29	CC(C)[C@](C)(N)C(=O)N[C@H]1CN[C@H](C(=O)O)[C@@H]1CCCB(O)O [Example 47, (2S,3R,4R)-4-((S)-2-amino-2,3-dimethylbutanamido)-3-(3-boronopropyl)pyrrolidine-2-carboxylic acid]
2	CC[C@H](C)[C@H](N)C(=O)N[C@H]1CN[C@H](C(=O)O)[C@@H]1CCCB(O)O [Example 45, (2S,3R,4R)-4-((2S,3S)-2-amino-3-methylpentanamido)-3-(3-boronopropyl)pyrrolidine-2-carboxylic acid]
0.818	CC(C)(C)[C@H](N)C(=O)N[C@H]1CN[C@H](C(=O)O)[C@@H]1CCCB(O)O [Example 38, (2S,3R,4R)-4-((S)-2-amino-3,3-dimethylbutanamido)-3-(3-boronopropyl)pyrrolidine-2-carboxylic acid]
> 10000	N[C@@]1(C(=O)O)CNC[C@@]1(CO)CCCB(O)O [Example 94C]
602	O=C(O)C1CNCC1CCCB(O)O (single isomer, unassigned) [Example 21B, 4-[3-(dihydroxyboranyl)propyl]pyrrolidine-3-carboxylic acid]
2	N[C@H](C(=O)N[C@H]1CN[C@H](C(=O)O)[C@@H]1CCCB(O)O)C1Cc2ccccc2C1 [Example 48, (2S,3R,4R)-4-((S)-2-amino-2-(2,3-dihydro-1H-inden-2-yl)acetamido)-3-(3-boronopropyl)pyrrolidine-2-carboxylic acid]
> 10000	NC1CN[C@H](C(=O)O)C1CCCB(O)O (single isomer, unassigned) [Example 33B]
985	C[C@H](N)C(=O)N(C)[C@H]1CN[C@H](C(=O)O)[C@@H]1CCCB(O)O [Example 51, (2S,3S,4R)-4-((S)-2-amino-N-methylpropanamido)-3-(3-boronopropyl)pyrrolidine-2-carboxylic acid]
1480	O=C(O)[C@@]1(CCO)NCC[C@H]1CCCB(O)O [Example 53, (2S,3R)-3-(3-boronopropyl)-2-(2-hydroxyethyl)pyrrolidine-2-carboxylic acid]
> 10000	O=C(O)C1CNCC1CCCB(O)O (single isomer, unassigned) [Example 21C, 4-[3-(dihydroxyboranyl)propyl]pyrrolidine-3-carboxylic acid]

Compound	IC50 [nM]
O=C(O)[C@H]1NC[C@H](NCC(F)(F)F)[C@H]1CCCB(O)O [Example 26, (2S,3R,4R)-3-(3-boronopropyl)-4-((2,2,2-trifluoroethyl)amino)pyrrolidine-2-carboxylic acid]	120
O=C(O)[C@H]1NCCO[C@H]1CCCB(O)O [Example 52, (2S,3S)-2-(3-boronopropyl)morpholine-3-carboxylic acid]	211
O=C(O)[C@H]1NC[C@@H]1CCCB(O)O [Example 8A, (2S,3S)-3-[3-(dihydroxyboranyl)propyl]azetidine-2-carboxylic acid]	340
